Reference: patent publication US20230064189A1, “1H-PYRAZOLO[3,4-D]PYRIMIDINE COMPOUNDS USEFUL FOR THE TREATMENT OF PLATINUM-RESISTANT CANCER” (IMPERIAL COLLEGE INNOVATIONS LIMITED, priority 2019, published 2023)

What was measured:
AKT1 = AKT1 (Homo sapiens, UniProt P31749); assay: AKT1 enzymatic inhibition assay (HTRF KinEASE); assay type: biochemical; settings: read-out: AKT1 pIC50 (converted)
Method: (§1) The IC50 values of Example compounds of the invention for AKT1, AKT2 and AKT3 were measured using HTRF (Homogeneous Time Resolved Fluorescence) KinEASE assays (62ST3PEB—1000 tests or 62ST3PEC—20,000 tests) from cisbio.com, according to manufacturer's instructions.

AKT2 = AKT2 (Homo sapiens, UniProt P31751); assay: AKT2 enzymatic inhibition assay (HTRF KinEASE); assay type: biochemical; settings: read-out: AKT2 pIC50 (converted)
Method: as §1

AKT3 = AKT3 (Homo sapiens, UniProt Q9Y243); assay: AKT3 enzymatic inhibition assay (HTRF KinEASE); assay type: biochemical; settings: read-out: AKT3 pIC50 (converted)
Method: as §1

DNA-PK = DNA-PK (Homo sapiens, UniProt P78527); assay: DNA-PK enzymatic inhibition assay (HTRF KinEASE); assay type: biochemical; settings: read-out: DNA-PK pIC50 (converted)
Method: The IC50 values of Example compounds of the invention for DNA-PK were measured using the HTRF KinEASE assay as described above.

PEO4 cells [1] = assay: Relative re-sensitisation ratio of apoptosis induction (caspase 3/7 normalised to MTT) with cisplatin; assay type: cell-based; settings: compound at 20 μM, triciribine at 25 μM, cisplatin 25 μM, 24 h
Method: Cell viability was determined for different assays (as described in FIGS. 1 and 2, Table 5) in optically clear 96 well plates using the standard 3-(4, 5-dimethylthiazol-2-yl)-2, 5-diphenyl tetrazolium bromide (MTT) assay, which is a colorimetric method for determining the number of metabolically active cells in cytotoxicity assays. MTT is bioreduced by mitochondrial dehydrogenase enzymes into a coloured solid formazan product. MTT reagent (Sigma, UK) was initially prepared by dissolving in PBS at a concentration of 3 mg/ml. Following relevant drug treatments at different time points and cell lines (described in results section and FIGS. 1 and 2), MTT reagent was added to each experimental well at a final concentration of 0.5 mg/ml. After incubation for 3 h at 37° C. 5% CO2, an equal volume of stop solution (10% SDS in 0.01% HCl) was added and formed formazan crystals were allowed to dissolve shaking overnight. The following day, the optical density was read at 570 nm and analysis performed as per each assay type.
(§2) The caspase 3/7 activity of cells following treatment with inhibitor compounds or vehicle (DMSO) was determined using the Caspase-Glo® 3/7 Assay (Catalogue number G8093, Promega, US) according to manufacturer's instructions. Briefly, 10,000 cells per well for PEO1 and PEO4 cell lines or 5000 cells per well for SKOV3 cell line were grown in 96 well plates in a final volume of 50 μl and following relevant drug treatment of cells (example compound±cisplatin, comparative example compound±cisplatin, or vehicle±cisplatin) for 24 hours, an equal volume of Caspase-Glo® Reagent containing a luminogenic substrate for Caspase 3 and Caspase 7 was added i.e. if cells cultured in 50 μl of media, 50 μl of caspase reagent was added. After 1 h incubation at room temperature in the dark, the luminescence of each sample was measured in a plate-reading luminometer (LUMIstar OPTIMA, BMG Labtech, Germany). Caspase 3/7 activity data was normalised to corresponding viability data from MTT and analysis was performed according to each experimental set-up.
. Apoptosis (caspase 3/7) and viability (MTT) assays were carried out as described for each assay protocols and the phenotypic apoptosis assays above. Relative apoptosis induction was inferred from caspase 3/7 assay values normalised to the standard MTT viability assay values of each corresponding well. […]

SKOV3 cells = assay: Phenotypic apoptosis assay (caspase 3/7 normalised to MTT) plus/minus cisplatin in SKOV3; assay type: cell-based; settings: for activity in phenotypic in vitro apoptosis platinum re-sensitisation assays: inhibitor 6.67 μM + cisplatin 25 μM
Method: Data shown is n=3±s.e.m; ** p<0.01, * p<0.0^5.
(§3) MTT is bioreduced by mitochondrial dehydrogenase enzymes into a coloured solid formazan product. MTT reagent (Sigma, UK) was initially prepared by dissolving in PBS at a concentration of 3 mg/ml. […] After incubation for 3 h at 37° C. 5% CO2, an equal volume of stop solution (10% SDS in 0.01% HCl) was added and formed formazan crystals were allowed to dissolve shaking overnight. The following day, the optical density was read at 570 nm and analysis performed as per each assay type.
as §2
(§4) Phenotypic apoptosis assays were performed to determine the level of caspase 3/7 dependent apoptotic induction of each inhibitor compound in the presence or absence of cisplatin (cddp). PEO4 and SKOV3 cells were seeded out 24 hours prior to drug treatments. […] 5% CO2. […] Duplicate plates were set up for each experiment for caspase and MTT assays. Caspase and MTT assays were carried out according to the protocols described above.
(§5) Data shown in FIGS. 2A and 2B are n=3±s.e.m. Statistical significance was calculated using student t-test using GraphPad Prism software ** p<0.01, * p<0.05.

PEO4 cells [2] = assay: Phenotypic apoptosis assay (caspase 3/7 normalised to MTT) plus/minus cisplatin in PEO4; assay type: cell-based; settings: 24 hours
Method: as §3, §2, §4, §5

[3] = test system: platinum sensitive cell line PEO1; assay: Isobologram (Loewe synergy/antagonism, MTT viability) with cisplatin in PEO1; assay type: cell-based; settings: PEO1, 72 hours, MTT readout
Method: (§6) . Data shown is n=3. Decreasing negative numbers within each table indicate increasing levels of antagonism, increasing positive numbers indicate increasing levels of synergy between cisplatin and inhibitor compounds.
(§7) Cell viability was determined for different assays (as described in FIGS. 1 and 2, Table 5) in optically clear 96 well plates using the standard 3-(4, 5-dimethylthiazol-2-yl)-2, 5-diphenyl tetrazolium bromide (MTT) assay, which is a colorimetric method for determining the number of metabolically active cells in cytotoxicity assays. MTT is bioreduced by mitochondrial dehydrogenase enzymes into a coloured solid formazan product. […] The following day, the optical density was read at 570 nm and analysis performed as per each assay type.
(§8) All cell lines (PEO1, PEO4 and SKOV3) were seeded out 24 hours prior to treatment into 96 well plates at 10,000 cells per well in triplicate for each inhibitor compound. […] Following 72 hours incubation, cell viability was assessed using the MTT assay (n=3). IC50 values for each compound was determined using GraphPad Prism software, non-linear regression of log (inhibitor) versus response (three parameters). All isobologram assays used the standard MTT protocol as described above for assay readout. […] Following 72 h incubation, cell viability was assessed using MTT assays as described above. […]

[4] = test system: platinum resistant cell line PEO4; assay: Isobologram (Loewe synergy/antagonism, MTT viability) with cisplatin in PEO4; assay type: cell-based; settings: PEO4, 72 hours, MTT readout
Method: as §6, §7, §8

[5] = test system: platinum resistant epithelial ovarian cancer cell line SKOV3; assay: Isobologram (Loewe synergy/antagonism, MTT viability) with cisplatin in SKOV3; assay type: cell-based; settings: SKOV3, 72 hours, MTT readout
Method: as §6, §7, §8

[6] = inhibitor 10 μM + cisplatin 25 μM, 24 hours
[7] = inhibitor 10 μM + cisplatin 25 μM

Chain of AKT1 (P31749 150-408 limits assumed): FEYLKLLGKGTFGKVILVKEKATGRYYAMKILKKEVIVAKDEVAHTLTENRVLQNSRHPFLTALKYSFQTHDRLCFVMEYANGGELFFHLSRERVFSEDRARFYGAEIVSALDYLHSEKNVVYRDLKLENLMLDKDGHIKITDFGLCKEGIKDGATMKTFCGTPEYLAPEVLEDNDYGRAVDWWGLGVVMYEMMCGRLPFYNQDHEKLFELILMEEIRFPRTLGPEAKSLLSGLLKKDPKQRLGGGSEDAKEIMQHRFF
Chain of AKT2 (P31751 152-409 limits assumed): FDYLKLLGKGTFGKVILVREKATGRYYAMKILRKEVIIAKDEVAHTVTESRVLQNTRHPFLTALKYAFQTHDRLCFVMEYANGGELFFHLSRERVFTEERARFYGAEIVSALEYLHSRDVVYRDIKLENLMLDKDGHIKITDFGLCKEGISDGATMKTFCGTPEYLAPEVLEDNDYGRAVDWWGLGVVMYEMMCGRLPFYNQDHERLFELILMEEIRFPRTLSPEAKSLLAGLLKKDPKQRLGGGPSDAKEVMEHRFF
Chain of AKT3 (Q9Y243 148-405 limits assumed): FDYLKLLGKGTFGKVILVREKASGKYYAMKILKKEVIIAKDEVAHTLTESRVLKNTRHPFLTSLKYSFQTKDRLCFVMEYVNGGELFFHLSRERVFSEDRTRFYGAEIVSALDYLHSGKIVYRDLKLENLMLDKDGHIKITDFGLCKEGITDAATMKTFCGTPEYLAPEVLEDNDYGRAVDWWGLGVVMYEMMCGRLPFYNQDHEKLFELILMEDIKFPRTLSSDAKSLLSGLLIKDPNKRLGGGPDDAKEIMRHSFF

Compound	IC50 (AKT1) [nM]	IC50 (AKT2) [nM]	IC50 (AKT3) [nM]	IC50 (DNA-PK) [nM]	Relative re-sensitisation ratio of apoptosis induction (caspase 3/7) relative to triciribine phosphate (PEO4 cells [1])	activity in phenotypic in vitro apoptosis platinum re-sensitisation assays (SKOV3 cells)	apoptosis (re-sensitisation) in combination with cisplatin (SKOV3 cells; [6])	apoptosis (re-sensitisation) in combination with cisplatin (PEO4 cells [2]; [7])	further results
Cn1ncc(Cl)c1-c1cc(C(=O)N[C@H](CN)Cc2cccc(F)c2)sc1Cl [Afuresertib, N-[(2S)-1-amino-3-(3-fluorophenyl)propan-2-yl]-5-chloro-4-(4-chloro-2-methylpyrazol-3-yl)thiophene-2-carboxamide]	–	–	–	–	–	–	showed re-sensitisation	showed re-sensitisation	–
CN(C)CC(c1ccc(Cl)cc1)N1CCN(c2ncnc3[nH]nc(Br)c23)CC1 (centres unmarked) [Example 1, 2-[4-(3-bromo-1H-pyrazolo[3,4-d]pyrimidin-4-yl)piperazin-1-yl]-2-(4-chlorophenyl)-N,N-dimethyl-ethanamine]	0.324	0.55	0.112	0.24	3.0	active	–	–	synergy in combination with cisplatin (Loewe isobologram analysis) [3]: superior synergy; synergy in combination with cisplatin (Loewe isobologram analysis) [4]: strong synergy; synergy in combination with cisplatin (Loewe isobologram analysis) [5]: strong synergy; apoptosis (re-sensitisation) in combination with cisplatin compared to cisplatin alone (SKOV3 cells; inhibitor 2 μM + cisplatin 25 μM, 24 hours): statistically significant increases in apoptosis; apoptosis (re-sensitisation) in combination with cisplatin compared to cisplatin alone (PEO4 cells [2]; inhibitor 2 μM + cisplatin 25 μM): statistically significant increases in apoptosis
CN(C)CCOC(c1ccc(Cl)cc1)C1CCN(c2ncnc3[nH]nc(Br)c23)CC1 (centres unmarked) [Example 2, 2-((1-(3-bromo-1H-pyrazolo[3,4-d]pyrimidin-4-yl)piperidin-4-yl)(4-chlorophenyl)methoxy)-N,N-dimethylethan-1-amine]	5.75	10.5	3.63	3.89	2.9	active	–	–	–
CC(C)NC[C@@H](C(=O)N1CCN(c2ncnc3c2[C@H](C)C[C@H]3O)CC1)c1ccc(Cl)cc1 [Ipatasertib, (2S)-2-(4-chlorophenyl)-1-[4-[(5R,7R)-7-hydroxy-5-methyl-6,7-dihydro-5H-cyclopenta[d]pyrimidin-4-yl]piperazin-1-yl]-3-(propan-2-ylamino)propan-1-one]	–	–	–	–	–	–	–	–	apoptosis (re-sensitisation) in combination with cisplatin (SKOV3 cells; inhibitor 20 μM + cisplatin 25 μM, 24 hours): showed re-sensitisation; apoptosis (re-sensitisation) in combination with cisplatin (PEO4 cells [2]; inhibitor 20 μM + cisplatin 25 μM): showed re-sensitisation
CO[C@@H](C)Cn1c(=O)n(C)c2cnc3ccc(-c4cncc(C(C)(C)O)c4)cc3c21 [LY3023414, 8-[5-(2-hydroxypropan-2-yl)pyridin-3-yl]-1-[(2S)-2-methoxypropyl]-3-methylimidazo[4,5-c]quinolin-2-one]	–	–	–	–	–	–	showed re-sensitisation	showed re-sensitisation	–
O=c1cc(N2CCOCC2)oc2c(-c3cccc4c3sc3ccccc34)cccc12 [NU7441, 8-dibenzothiophen-4-yl-2-morpholin-4-ylchromen-4-one]	–	–	–	–	–	–	showed re-sensitisation	showed re-sensitisation	–
Cn1ncc(Cl)c1-c1cc(C(=O)N[C@H](CN)Cc2ccc(F)c(F)c2)oc1Cl [Uprosertib, N-[(2S)-1-amino-3-(3,4-difluorophenyl)propan-2-yl]-5-chloro-4-(4-chloro-2-methylpyrazol-3-yl)furan-2-carboxamide]	–	–	–	–	–	–	showed re-sensitisation	showed re-sensitisation	–

Second part, led by results:

IC50 (AKT1) [nM]	IC50 (AKT2) [nM]	IC50 (AKT3) [nM]	IC50 (DNA-PK) [nM]	Compound	Relative re-sensitisation ratio of apoptosis induction (caspase 3/7) relative to triciribine phosphate (PEO4 cells [1])	activity in phenotypic in vitro apoptosis platinum re-sensitisation assays (SKOV3 cells)	apoptosis (re-sensitisation) in combination with cisplatin (SKOV3 cells; [6])	apoptosis (re-sensitisation) in combination with cisplatin (PEO4 cells [2]; [7])	further results
0.575	1.41	0.219	0.158	CN(C)CCNC(c1ccc(Cl)cc1)C1CCN(c2ncnc3[nH]nc(C(F)(F)F)c23)CC1 (single isomer, unassigned; (+)) [Example 12a, (+)-N^1-((4-chlorophenyl)(1-(3-(trifluoromethyl)-1H-pyrazolo[3,4-d]pyrimidin-4-yl)piperidin-4-yl)methyl)-N^2,N^2-dimethylethane-1,2-diamine]	1.2	active	–	–	–
3.39	5.5	0.832	5.37	CN(C)CCNC(c1ccc(Cl)cc1)C1CCN(c2ncnc3[nH]nc(C(F)(F)F)c23)CC1 (single isomer, unassigned; (-)) [Example 12b, (−)-N^1-((4-chlorophenyl)(1-(3-(trifluoromethyl)-1H-pyrazolo[3,4-d]pyrimidin-4-yl)piperidin-4-yl)methyl)-N^2,N^2-dimethylethane-1,2-diamine]	1.0	active	–	–	–
–	–	–	10.5	CCn1c(-c2nonc2N)nc2c(C#CC(C)(C)O)ncc(OC[C@H]3CCCNC3)c21 [GSK-3g, 4-[2-(4-amino-1,2,5-oxadiazol-3-yl)-1-ethyl-7-[[(3S)-piperidin-3-yl]methoxy]imidazo[4,5-c]pyridin-4-yl]-2-methylbut-3-yn-2-ol, reference compound]	–	inactive	–	–	–
